The values below come from the NIST ThermoML archive (doi:10.1016/j.jct.2019.03.001).

± gives the expanded uncertainty stated by the source.

A short description of this series: refractive index (Na D-line) (dimensionless). The following applies: 293.15 K; 101.33 kPa; Liquid; Standard Abbe refractometry.

For `CCCCO` [butan-1-ol], the refractive index is on record as 1.3993 ± 0.0007.
